Experimental data: patent US7442683B2, “Cyclic peptide” (Takara Bio Inc., priority 2001, dated 2008)
Like-named read-outs stand apart in the source and are kept apart here.

What was measured:
Assay type in all cases: cell-based
[1] = tested on: Aspergillus fumigatus TIMM1776
Experimental: (§1) The antifungal activities of the compounds synthesized in Examples 1 and 3 to 7 were measured by a liquid medium dilution method. Candida albicans TIMM0136, Cryptococcus neoformans TIMM0354 or Aspergillus fumigatus TIMM1776 was inoculated into a medium containing one of the compounds diluted serially, and cultured at 30° C. for two days. […] For the measurements, a medium containing 0.67% Yeast Nitrogen Base (Difco) and 1.0% glucose (YNBG medium) was used for the cultures of Candida albicans and Cryptococcus neoformans, and a medium containing 0.5% Brain Heart Infusion Bouillon (Nissui) (BHI medium) was used for the culture of Aspergillus fumigatus.

[2] = tested on: Candida albicans TIMM0136
Experimental: as §1

[3] = tested on: Cryptococcus neoformans TIMM0354
Experimental: as §1

SMILES	MIC (μg/ml) A.f. ([1]; Aspergillus fumigatus TIMM1776, BHI medium, 30° C., two days, growth almost completely inhibited) [µg/mL]	MIC (μg/ml) A.f. ([1]; TIMM1776) [µg/mL]	MIC (μg/ml) C.a. [2] [µg/mL]	MIC (μg/ml) C.n. [3] [µg/mL]
CCCCCCCCCCCCCC1CC(=O)N[C@@H](C)C(=O)N[C@@H](CCCN)C(=O)NCCC(=O)N[C@@H](CO)C(=O)N[C@@H](CO)C(=O)N[C@H](CC(N)=O)C(=O)N[C@H]([C@@H](C)O)C(=O)NCC(=O)O1 (mixture of isomers) [Compound 1, cyclo(-L-Ala-L-Orn-β-Ala-L-Ser-L-Ser-D-Asn-D-allo-Thr-Gly-(±) -Hhd-)]	1.56	–	–	–
CCCCCCCCCCCCCC1CC(=O)N[C@@H](C)C(=O)N[C@@H](CCCN)C(=O)N[C@@H](CC(N)=O)C(=O)N[C@@H](CO)C(=O)N[C@@H](CO)C(=O)N[C@H](CC(N)=O)C(=O)N[C@H]([C@@H](C)O)C(=O)NCC(=O)O1 (mixture of isomers) [Compound 3, cyclo(-L-Ala-L-Orn-L-Asn-L-Ser-L-Ser-D-Asn-D-allo-Thr-Gly-(±)-Hhd-)]	–	1.56	6.25	3.12
CCCCCCCCCCCCCC1CC(=O)N[C@@H](C)C(=O)N[C@@H](CCCN)C(=O)N[C@@H](CC(=O)O)C(=O)N[C@@H](CO)C(=O)N[C@@H](CO)C(=O)N[C@H](CC(N)=O)C(=O)N[C@H]([C@@H](C)O)C(=O)NCC(=O)O1 (mixture of isomers) [Compound 4, cyclo(-L-Ala-L-Orn-L-Asp-L-Ser-L-Ser-D-Asn-D-allo-Thr-Gly-(±)-Hhd-)]	–	–	6.25	6.25
CCCCCCCCCCCCCC1CC(=O)N[C@@H](C)C(=O)N[C@@H](CCCN)C(=O)N[C@@H](CCC(=O)O)C(=O)N[C@@H](CO)C(=O)N[C@@H](CO)C(=O)N[C@H](CC(N)=O)C(=O)N[C@H]([C@@H](C)O)C(=O)NCC(=O)O1 (mixture of isomers) [Compound 5, cyclo(-L-Ala-L-Orn-L-Glu-L-Ser-L-Ser-D-Asn-D-allo-Thr-Gly-(±)-Hhd-)]	–	0.39	3.12	6.25
CCCCCCCCCCCCCC1CC(=O)N[C@@H](C)C(=O)N[C@@H](CCCN)C(=O)NCC(=O)N[C@@H](CO)C(=O)N[C@@H](CO)C(=O)N[C@H](CC(N)=O)C(=O)N[C@H]([C@@H](C)O)C(=O)NCC(=O)O1 (mixture of isomers) [Compound 6, cyclo(-L-Ala-L-Orn-Gly-L-Ser-L-Ser-D-Asn-D-allo-Thr-Gly-(±)-Hhd-)]	–	–	12.5	3.12
CCCCCCCCCCCCCC1CC(=O)N[C@@H](C)C(=O)N[C@@H](CCCN)C(=O)N[C@@H](CO)C(=O)N[C@@H](CO)C(=O)N[C@@H](CO)C(=O)N[C@H](CC(N)=O)C(=O)N[C@H]([C@@H](C)O)C(=O)NCC(=O)O1 (mixture of isomers) [Compound 7, cyclo(-L-Ala-L-Orn-L-Ser-L-Ser-L-Ser-D-Asn-D-allo-Thr-Gly-(±)-Hhd-)]	–	0.78	6.25	3.12
CCCCCCCCCCCCCC1CC(=O)N[C@@H](C)C(=O)N[C@@H](CCCN)C(=O)NCCC(=O)N[C@@H](CO)C(=O)N[C@@H](CO)C(=O)N[C@H](CC(N)=O)C(=O)N[C@H]([C@H](C)O)C(=O)NCC(=O)O1 (stereo partly drawn) [AA^7:D-Thr-substituted analog]	–	> 200	> 200	> 200
CCCCCCCCCCCCCC1CC(=O)N[C@@H](C)C(=O)N[C@@H](CCCN)C(=O)NCCC(=O)N[C@@H](CO)C(=O)N[C@@H](CO)C(=O)N[C@H](CC(N)=O)C(=O)N[C@@H]([C@@H](C)O)C(=O)NCC(=O)O1 (stereo partly drawn) [AA^7:L-Thr-substituted analog]	–	> 200	> 200	> 200
